Test results as given in patent US20180112258A1, “MEDICAL USES AND METHODS FOR TREATING CANCER USING MONOPOLAR SPINDLE 1 (MPS1) KINASE INHIBITORS” (THE INSTITUTE OF CANCER RESEARCH: ROYAL CANCER HOSPITAL, priority 2015, published 2018).
Positions count from the first letter of the chain named. Where two headings read alike, the source gives them in different places.

Columns and labels:
[1] = test system: parental HCT116 cells; experiment: Cell viability assay (CellTiterGlo, 4 days), parental HCT116; format: cell-based, human
[2] = test system: parental HCT116 cells; experiment: Flow cytometry cell cycle profiles, parental HCT116; format: cell-based, human
Procedure: Cells were fixed overnight at −20° C. in 70% ethanol, washed in PBS, then incubated in 10 μg/ml propidium iodide and 0.5% RNase (Sigma) for 30 min and then analysed using LSRII flow cytometer (BD Biosciences).

[3] = test system: parental HCT116 cells; experiment: Time-lapse microscopy, time in mitosis, parental HCT116; format: cell-based, human
Procedure: (§1) For analysis by immunofluorescence, cells were fixed in 1% formaldehyde for 5 min at room temperature, quenched in glycine, washed in PBS-Triton X-100 (0.1% PBS-T) and incubated for 1 hour in primary antibodies in PBS-T: MAD2 (Bethyl Laboratories Inc., A300-301A), CDC2020 (Millipore, MAB3775), MPS1 (Millipore, 05-682), MPS1 pT33pS37 (Life Technologies, 44-1325G) and ACA (ImmunoVision, HST-0100). After PBS-T washes, cells were incubated with fluorescent-conjugated secondary antibodies (Life Technologies), stained with DAPI (Life Technologies) and mounted onto slides with Vectashield (Vector Labs). Images were acquired using a Zeiss LSM 710 confocal microscope and processed using Velocity 3D Image analysis software (PerkinElmer). Time-lapse micrscopy was performed in 96-well Ibidi plate (Thistle Scientific) using a Diaphot inverted microscope (Nikon), in a humidified CO2 chamber at 37° C., using a motorized stage (Prior Scientific), controlled by Simple PCI software (Compix).

[4] = test system: kinetochore localisation of SAC proteins in HeLa cells; experiment: Immunofluorescence of kinetochore proteins in HeLa cells; format: cell-based
Procedure: as §1

[5] = test system: taxol or nocodazole-induced SAC; experiment: Abrogation of taxol or nocodazole-induced SAC (mitotic index, MPM2 staining and flow cytometry); format: cell-based; settings: within 1 hour following inhibitor treatment; 0.6 μM CCT251455
Procedure: Cells were fixed overnight at −20° C. in 70% ethanol, washed in PBS, then incubated in 10 μg/ml propidium iodide and 0.5% RNase (Sigma) for 30 min and then analysed using LSRII flow cytometer (BD Biosciences). To stain for mitosis, cells were incubated for 1 hour at 4° C. with anti-MPM2 antibodies (Millipore, 05-368), then 1 hour at 4° C. with FITC-conjugated secondary antibodies (Life technology).

[6] = test system: HeLa cells; experiment: Time-lapse microscopy, time in mitosis and mitotic defects, HeLa; format: cell-based; settings: 0.6 μM CCT251455
Procedure: as §1

[7] = test system: HCT116 cells containing MPS1 p.C604W; experiment: Cell viability assay, HCT116 NvR clones with MPS1 p.C604W (NvR12 etc.); settings: for resistance / potency in cell viability assay vs parental: p.C604W (NvR12); for GI50: Homo sapiens; for Resistance conferred by mutation p.C604W: summary table of inhibitors vs mutations
[8] = test system: HCT116 cells containing MPS1 p.M600T; experiment: Cell viability assay, HCT116 NvR clones with MPS1 p.M600T (NvR1 etc.); settings: for Resistance conferred by mutation p.M600T: summary table of inhibitors vs mutations; for GI50: Homo sapiens
[9] = target: T1, recombinant full-length wild-type MPS1 (Homo sapiens, UniProt P33981); experiment: Recombinant MPS1 kinase assay (electrophoretic mobility shift), WT; format: biochemical; settings: mean ± SD, quadruplicate
T1 construct: For protein expression of full-length MPS1 proteins, Sf9 insect cells were grown at 27° C; made in house; host or cells: Sf9 insect cells (baculovirus, modified pFastBac1)
T1 sequence (P33981 1-857): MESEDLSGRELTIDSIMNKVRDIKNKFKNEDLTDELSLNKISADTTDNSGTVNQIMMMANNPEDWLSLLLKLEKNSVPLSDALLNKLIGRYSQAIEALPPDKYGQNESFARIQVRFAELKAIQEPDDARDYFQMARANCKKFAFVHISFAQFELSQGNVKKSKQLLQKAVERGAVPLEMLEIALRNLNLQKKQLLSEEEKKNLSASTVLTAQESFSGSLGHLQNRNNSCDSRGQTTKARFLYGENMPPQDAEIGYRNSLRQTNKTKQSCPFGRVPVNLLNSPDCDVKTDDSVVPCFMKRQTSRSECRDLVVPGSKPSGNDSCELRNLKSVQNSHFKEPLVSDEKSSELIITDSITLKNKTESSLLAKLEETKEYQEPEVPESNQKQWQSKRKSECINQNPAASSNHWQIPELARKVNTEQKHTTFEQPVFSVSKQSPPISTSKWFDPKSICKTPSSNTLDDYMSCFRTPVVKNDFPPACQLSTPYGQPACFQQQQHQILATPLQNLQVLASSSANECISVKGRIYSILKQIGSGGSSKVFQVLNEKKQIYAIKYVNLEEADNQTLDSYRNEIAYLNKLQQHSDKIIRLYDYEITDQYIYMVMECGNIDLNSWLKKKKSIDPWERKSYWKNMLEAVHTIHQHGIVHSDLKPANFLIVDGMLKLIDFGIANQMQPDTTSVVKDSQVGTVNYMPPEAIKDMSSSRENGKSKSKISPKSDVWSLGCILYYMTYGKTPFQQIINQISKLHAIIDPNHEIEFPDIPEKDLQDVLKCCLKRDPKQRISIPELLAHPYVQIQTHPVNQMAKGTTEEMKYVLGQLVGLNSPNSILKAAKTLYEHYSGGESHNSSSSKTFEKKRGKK
Procedure: (§2) For high ATP concentration assays, 1 mM ATP was used. An ECHO® 550 (Labcyte Inc) acoustic dispenser was used to generate duplicate 8 point dilution curves directly into 384-well low-volume polystyrene assay plates (Corning Life Sciences). The reaction was carried out for 90 min at room temperature.

[10] = target: T2, recombinant full-length MPS1 p.C604W (Homo sapiens, UniProt P33981, C604W); experiment: Recombinant MPS1 kinase assay (electrophoretic mobility shift), p.C604W; format: biochemical; settings: for IC50: C604W, mean ± SD, quadruplicate
T2 construct: made in house; host or cells: Sf9 insect cells (baculovirus, modified pFastBac1)
T2 sequence (P33981 1-857 C604W): T1 sequence (P33981 1-857) with C604W
Procedure: as §2

[11] = ATP at Km, read-out: IC50 values at ATP Km
[12] = IC50 values at 1 mM ATP, 1 mM ATP

COc1cc(OC2CCN(C)CC2)ccc1Nc1ncc2c(n1)n(C1CCCC1)c(=O)n2C [AZ3146]
lethal concentration in cell viability assays [1]: 2 µM
GI50 ([1]; Homo sapiens, HCT-116): 0.8 µM
effect on cell cycle profile ([2]; 1 and 2 μM AZ3146, 24 hours): G1 and G2/M peaks are increasingly abolished
time to exit mitosis ([3]; 2 μM AZ3146): 10 min

Cn1cc(-c2cc3cnc(Nc4ccc(-c5cncn5C)cc4Cl)cc3n2C(=O)OC(C)(C)C)cn1 [CCT251455, Tert-Butyl 6-(2-Chloro-4-(1-methyl-1H-imidazol-5-yl)phenylamino)-2-(1-methyl-1H-pyrazol-4-yl)-1H-pyrrolo[3,2-c]pyridine-1-carboxylate]
MPS1 kinetochore localisation ([4]; 0.6 μM CCT251455): increased
MPS1 pT33/S37 and pT676 signals ([4]; 0.6 μM CCT251455): no longer visible
kinetochore recruitment of BUB1 and BUBR1 ([4]; 0.6 μM CCT251455): reduced, but still visible by microscopy
kinetochore recruitment of MAD2, MAD1, ZW10 and CDC20 ([4]; 0.6 μM CCT251455): severely inhibited
kinetochore localisation of ZWINT-1, CENP-E, CENP-F and CENP-A pS7 ([4]; controls): remained unaffected
concentration at which cell cycle profiles were abolished ([2]; HCT116, 24 hour treatment): 0.32 µM
cells that had exited mitosis [5]: ~100%
cells with unaligned chromosomes [6]: 98%
time to exit mitosis [6]: ~17 min

Cc1ncc(-c2ccc(Nc3cc4c(cn3)cc(-c3cnn(C)c3)n4C(=O)OC(C)C)c(F)c2)n1C [Compound 3, isopropyl 6-(4-(1,2-dimethyl-1H-imidazol-5-yl)-2-fluorophenylamino)-2-(1-methyl-1H-pyrazol-4-yl)-1H-pyrrolo[3,2-c]pyridine-1-carboxylate]
resistance / potency in cell viability assay vs parental [7]: more potent
fold resistance in cell viability assay vs parental ([8]; p.M600T (NvR1)): ~2 fold
Resistance conferred by mutation p.M600T [8]: R

CCc1cccc(CC)c1NC(=O)c1nn(C)c2c1CCc1cnc(Nc3ccc(C(=O)NC4CCN(C)CC4)cc3OC(F)(F)F)nc1-2 [NMS-P715]
mitotic exit (SAC override) ([3]; 1 μM NMS-P715): rapidly exited mitosis
GI50 ([7]; HCT-116, read-out: GI50 NMS-P715, NvR9, p.C604W): 2.15 µM
GI50 ([7]; HCT-116, read-out: GI50 NMS-P715, NvR12, p.C604W): 2.43 µM
GI50 ([7]; HCT-116, read-out: GI50 NMS-P715, NvR13, p.C604W): 4.25 µM
GI50 ([7]; HCT-116, read-out: GI50 NMS-P715, NvR14, p.C604W): 3.73 µM
GI50 ([7]; HCT-116, read-out: GI50 NMS-P715, NvR15, p.C604W): 3.82 µM
GI50 ([7]; HCT-116, read-out: GI50 NMS-P715, NvR16, p.C604W): 3.26 µM
GI50 ([7]; HCT-116, read-out: GI50 NMS-P715, NvR17, p.C604W): 3.76 µM
GI50 ([7]; HCT-116, read-out: GI50 NMS-P715, NvR18, p.C604W): 3.76 µM
GI50 ([7]; HCT-116, read-out: GI50 NMS-P715, NvR19, p.C604W): 3.5 µM
GI50 ([7]; HCT-116, read-out: GI50 NMS-P715, NvR20, p.C604W): 3.86 µM
GI50 ([7]; HCT-116, read-out: GI50 NMS-P715, NvR21, p.C604W): 2.12 µM
GI50 ([7]; HCT-116, read-out: GI50 NMS-P715, NvR22, p.C604W): 2.2 µM
GI50 ([7]; HCT-116, read-out: GI50 NMS-P715, NvR23, p.C604W): 2.27 µM
GI50 ([7]; HCT-116, read-out: GI50 NMS-P715, NvR24, p.C604W): 2.24 µM
GI50 ([7]; HCT-116, read-out: GI50 NMS-P715, NvR25, p.C604W): 4.33 µM
GI50 ([7]; HCT-116, read-out: GI50 NMS-P715, NvR26, p.C604W): 2.25 µM
GI50 ([7]; HCT-116, read-out: GI50 NMS-P715, NvR29, p.C604W): 4.08 µM
GI50 ([7]; HCT-116, read-out: GI50 NMS-P715, NvR30, p.C604W): 1.24 µM
GI50 ([7]; HCT-116, read-out: GI50 NMS-P715, NvR34, p.C604W): 2.09 µM
GI50 ([7]; HCT-116, read-out: GI50 NMS-P715, NvR35, p.C604W): 2.44 µM
GI50 ([8]; HCT-116, read-out: GI50 NMS-P715, NvR1, p.M600T): 2.54 µM
GI50 ([8]; HCT-116, read-out: GI50 NMS-P715, NvR2, p.M600T): 1.85 µM
GI50 ([8]; HCT-116, read-out: GI50 NMS-P715, NvR4, p.M600T): 2.25 µM
GI50 ([8]; HCT-116, read-out: GI50 NMS-P715, NvR5, p.M600T): 2.48 µM
GI50 ([8]; HCT-116, read-out: GI50 NMS-P715, NvR6, p.M600T): 2.32 µM

Cn1cc(-c2ccc(Nc3ccc(C#N)c(NC4CCCCC4)n3)cc2OCC#N)cn1 [ONCOII]
resistance / potency in cell viability assay vs parental [7]: able to confer resistance
Resistance conferred by mutation p.C604W [7]: R
IC50 [9, 11]: 0.0108 ± 0.0037 µM
IC50 [9, 12]: 0.11 ± 0.018 µM
IC50 [10, 11]: 2.6 ± 0.65 µM
IC50 [10, 12]: 8.3 ± 2.9 µM
fold resistance of recombinant p.C604W vs wild-type protein ([10]; recombinant full-length MPS1 (Table 2)): 75 fold
resistance in cell viability assay vs parental ([8]; p.M600T (NvR1)): able to confer resistance
Resistance conferred by mutation p.M600T [8]: R

CC(C)(C)Nc1nc(Nc2ccc(C(N)=O)cc2)cc(N)c1C#N [SNG12]
Resistance conferred by mutation p.C604W [7]: R
Resistance conferred by mutation p.M600T [8]: R
